Measured values as given in patent US10479784B2, “Substituted pyrazin-2-amines as inhibitors of ATR kinase” (Vertex Pharmaceuticals Incorporated, priority 2008, dated 2019).

Target: full-length ATR (Homo sapiens (Human), UniProt Q13535)
Test: ATR Inhibition Assay (radioactive-phosphate incorporation)
Type: biochemical
Conditions: read-out: ATR Ki
Method in brief: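 Ki(app) was derived by non-linear regression of background-corrected initial rates of 33P incorporation into an 800 μM target peptide, read by phosphocellulose filter scintillation counting. Reaction conditions: 5 nM full-length ATR, 10 μM [γ-33P]ATP, pH 7.5 Tris buffer with MgCl2 and DTT, 25 °C, 10-min preincubation, 24 h run.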

Sequence of full-length ATR (Q13535 whole entry): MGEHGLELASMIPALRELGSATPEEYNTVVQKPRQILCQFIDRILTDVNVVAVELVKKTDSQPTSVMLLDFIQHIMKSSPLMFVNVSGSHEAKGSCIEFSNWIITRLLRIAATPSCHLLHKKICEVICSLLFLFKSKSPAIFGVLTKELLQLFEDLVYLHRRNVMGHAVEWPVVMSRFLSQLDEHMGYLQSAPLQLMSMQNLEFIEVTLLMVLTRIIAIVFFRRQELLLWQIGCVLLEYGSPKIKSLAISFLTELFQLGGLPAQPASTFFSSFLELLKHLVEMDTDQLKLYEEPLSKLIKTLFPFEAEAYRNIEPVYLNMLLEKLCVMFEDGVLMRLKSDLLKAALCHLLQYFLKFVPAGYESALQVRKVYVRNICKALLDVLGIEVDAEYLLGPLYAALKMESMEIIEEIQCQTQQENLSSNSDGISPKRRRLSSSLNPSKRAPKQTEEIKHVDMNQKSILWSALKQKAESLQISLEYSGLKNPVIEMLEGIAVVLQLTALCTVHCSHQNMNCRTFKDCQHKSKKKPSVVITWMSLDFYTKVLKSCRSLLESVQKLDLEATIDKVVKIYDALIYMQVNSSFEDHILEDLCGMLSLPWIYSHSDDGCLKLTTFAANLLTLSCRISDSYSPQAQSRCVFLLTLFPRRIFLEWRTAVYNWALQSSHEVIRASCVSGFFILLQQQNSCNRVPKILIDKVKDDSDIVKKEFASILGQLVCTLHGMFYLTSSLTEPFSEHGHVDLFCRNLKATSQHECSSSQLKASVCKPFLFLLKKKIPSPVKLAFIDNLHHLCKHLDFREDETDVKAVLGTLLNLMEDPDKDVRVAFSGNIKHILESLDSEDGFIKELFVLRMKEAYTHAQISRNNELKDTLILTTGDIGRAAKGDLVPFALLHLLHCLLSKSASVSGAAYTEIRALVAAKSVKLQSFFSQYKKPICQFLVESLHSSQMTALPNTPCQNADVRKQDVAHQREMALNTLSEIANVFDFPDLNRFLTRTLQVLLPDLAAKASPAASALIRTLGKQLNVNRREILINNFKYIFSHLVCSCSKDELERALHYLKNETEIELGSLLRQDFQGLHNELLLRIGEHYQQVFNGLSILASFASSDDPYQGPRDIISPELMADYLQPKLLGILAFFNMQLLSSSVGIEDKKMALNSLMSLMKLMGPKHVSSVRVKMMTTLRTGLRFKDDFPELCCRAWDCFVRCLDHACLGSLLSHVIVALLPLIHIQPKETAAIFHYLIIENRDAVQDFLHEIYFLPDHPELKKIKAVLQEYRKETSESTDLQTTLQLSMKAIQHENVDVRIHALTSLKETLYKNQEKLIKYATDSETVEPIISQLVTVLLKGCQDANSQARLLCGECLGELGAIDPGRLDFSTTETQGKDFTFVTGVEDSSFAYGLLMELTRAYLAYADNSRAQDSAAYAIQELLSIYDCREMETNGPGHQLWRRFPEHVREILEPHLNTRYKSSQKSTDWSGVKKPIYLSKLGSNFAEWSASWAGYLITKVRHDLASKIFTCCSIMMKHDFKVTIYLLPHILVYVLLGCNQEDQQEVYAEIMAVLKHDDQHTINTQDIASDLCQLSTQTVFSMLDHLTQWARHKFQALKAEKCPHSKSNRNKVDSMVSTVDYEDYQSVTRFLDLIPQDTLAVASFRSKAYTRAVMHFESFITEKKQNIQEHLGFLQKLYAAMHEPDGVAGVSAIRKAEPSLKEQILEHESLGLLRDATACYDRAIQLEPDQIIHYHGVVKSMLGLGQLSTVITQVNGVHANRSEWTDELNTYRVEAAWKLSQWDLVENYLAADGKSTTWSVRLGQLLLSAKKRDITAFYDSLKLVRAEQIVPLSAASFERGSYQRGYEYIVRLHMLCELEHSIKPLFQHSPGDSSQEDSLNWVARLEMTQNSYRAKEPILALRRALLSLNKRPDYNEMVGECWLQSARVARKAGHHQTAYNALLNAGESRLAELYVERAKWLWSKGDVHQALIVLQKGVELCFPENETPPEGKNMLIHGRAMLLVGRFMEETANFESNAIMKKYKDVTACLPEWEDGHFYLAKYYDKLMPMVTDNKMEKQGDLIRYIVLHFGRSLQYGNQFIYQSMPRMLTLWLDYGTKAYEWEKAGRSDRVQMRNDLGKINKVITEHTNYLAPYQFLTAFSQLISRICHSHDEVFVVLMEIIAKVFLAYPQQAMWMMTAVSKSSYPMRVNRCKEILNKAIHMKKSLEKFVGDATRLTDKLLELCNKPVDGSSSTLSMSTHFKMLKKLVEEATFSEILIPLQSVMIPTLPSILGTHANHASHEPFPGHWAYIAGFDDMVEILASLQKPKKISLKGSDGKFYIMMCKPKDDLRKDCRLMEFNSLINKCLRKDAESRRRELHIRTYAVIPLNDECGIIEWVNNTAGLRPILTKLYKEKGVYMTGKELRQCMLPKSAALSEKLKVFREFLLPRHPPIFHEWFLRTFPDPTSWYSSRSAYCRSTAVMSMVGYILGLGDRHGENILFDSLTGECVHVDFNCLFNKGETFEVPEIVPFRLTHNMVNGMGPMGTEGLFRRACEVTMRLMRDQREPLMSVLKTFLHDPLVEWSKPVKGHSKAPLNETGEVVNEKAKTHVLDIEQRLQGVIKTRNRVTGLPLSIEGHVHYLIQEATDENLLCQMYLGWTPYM

Ki [nM]	SMILES
10 to 100	CC(=O)c1cccc(-c2cnc(N)c(-c3nnc(-c4ccccc4)o3)n2)c1 [IA-249, 1-[3-[5-amino-6-(5-phenyl-1,3,4-oxadiazol-2-yl)pyrazin-2-yl]phenyl]ethanone]
100 to 5000	CN(C)C(=O)c1ccc(-c2cnc(N)c(-c3nnc(N(C)c4ccccc4)o3)n2)cc1 [IA-250, 4-[5-amino-6-[5-(N-methylanilino)-1,3,4-oxadiazol-2-yl]pyrazin-2-yl]-N,N-dimethyl-benzamide]
100 to 5000	CC(C)S(=O)(=O)c1ccc(-c2cnc(N)c(-c3nnc(CCNC(=O)OC(C)(C)C)o3)n2)cc1 [IA-251, tert-butyl N-[2-[5-[3-amino-6-(4-isopropylsulfonylphenyl)pyrazin-2-yl]-1,3,4-oxadiazol-2-yl]ethyl]carbamate]
10 to 100	N#Cc1cccc(-c2cnc(N)c(-c3nnc(-c4ccccc4)o3)n2)c1 [IA-252, 3-[5-amino-6-(5-phenyl-1,3,4-oxadiazol-2-yl)pyrazin-2-yl]benzonitrile]
100 to 5000	C=Cc1ccccc1-c1cnc(N)c(-c2nnc(-c3ccccc3)o2)n1 [IA-253, 3-(5-phenyl-1,3,4-oxadiazol-2-yl)-5-(2-vinylphenyl)pyrazin-2-amine]
100 to 5000	CN(C)C(=O)c1ccc(-c2cnc(N)c(-c3nnc(Nc4cccc(C#N)c4)o3)n2)cc1 [IA-254, 4-[5-amino-6-[5-(3-cyanoanilino)-1,3,4-oxadiazol-2-yl]pyrazin-2-yl]-N,N-dimethyl-benzamide]
100 to 5000	CC(C)S(=O)(=O)c1ccc(-c2cnc(N)c(-c3nnc(C(=O)NCC4CCCNC4)o3)n2)cc1 (stereo not drawn) [IA-255, 5-[3-amino-6-(4-isopropylsulfonylphenyl)pyrazin-2-yl]-N-(3-piperidylmethyl)-1,3,4-oxadiazole-2-carboxamide]
≤ 10	CC[S+]([O-])c1ccccc1-c1cnc(N)c(-c2nnc(-c3ccccc3)o2)n1 (stereo not drawn) [IA-256, 5-(2-ethylsulfinylphenyl)-3-(5-phenyl-1,3,4-oxadiazol-2-yl)pyrazin-2-amine]
≤ 10	C[S+]([O-])c1ccccc1-c1cnc(N)c(-c2nnc(-c3cccc(CN)c3)o2)n1 (stereo not drawn) [IA-257, 3-[5-[3-(aminomethyl)phenyl]-1,3,4-oxadiazol-2-yl]-5-(2-methylsulfinylphenyl)pyrazin-2-amine]
≤ 10	C#Cc1nnc(-c2nc(-c3ccc(S(=O)(=O)C(C)C)cc3)cnc2N)o1 [IA-258, 3-(5-ethynyl-1,3,4-oxadiazol-2-yl)-5-(4-isopropylsulfonylphenyl)pyrazin-2-amine]
10 to 100	Nc1ncc(-c2cccc3ccsc23)nc1-c1nnc(-c2ccccc2)o1 [IA-259, 5-(benzothiophen-7-yl)-3-(5-phenyl-1,3,4-oxadiazol-2-yl)pyrazin-2-amine]
10 to 100	Nc1ncc(-c2cccc3ncccc23)nc1-c1nnc(-c2ccccc2)o1 [IA-260, 3-(5-phenyl-1,3,4-oxadiazol-2-yl)-5-(5-quinolyl)pyrazin-2-amine]
10 to 100	NCC[S+]([O-])c1ccccc1-c1cnc(N)c(-c2nnc(-c3ccccc3)o2)n1 (stereo not drawn) [IA-261, 5-(2-(2-aminoethylsulfinyl)phenyl)-3-(5-phenyl-1,3,4-oxadiazol-2-yl)pyrazin-2-amine]
≤ 10	CN(C)C(=O)c1ccc(-c2cnc(N)c(-c3nnc(-c4ccsc4)o3)n2)cc1 [IA-262, 4-[5-amino-6-[5-(3-thienyl)-1,3,4-oxadiazol-2-yl]pyrazin-2-yl]-N,N-dimethyl-benzamide]
10 to 100	Cc1ccc(-c2nnc(-c3nc(-c4ccc(C(=O)N(C)C)cc4)cnc3N)o2)cc1 [IA-263, 4-[5-amino-6-[5-(p-tolyl)-1,3,4-oxadiazol-2-yl]pyrazin-2-yl]-N,N-dimethyl-benzamide]
≤ 10	N#Cc1cccn1-c1cnc(N)c(-c2nnc(-c3ccccc3)o2)n1 [IA-264, 1-[5-amino-6-(5-phenyl-1,3,4-oxadiazol-2-yl)pyrazin-2-yl]pyrrole-2-carbonitrile]
100 to 5000	CN(C)CCNc1cc(-c2cnc(N)c(-c3nnc(-c4ccccc4)o3)n2)ccn1 [IA-265, N′-[4-[5-amino-6-(5-phenyl-1,3,4-oxadiazol-2-yl)pyrazin-2-yl]-2-pyridyl]-N,N-dimethyl-ethane-1,2-diamine]
10 to 100	NC(=O)Cc1ccccc1-c1cnc(N)c(-c2nnc(-c3ccccc3)o2)n1 [IA-266, 2-[2-[5-amino-6-(5-phenyl-1,3,4-oxadiazol-2-yl)pyrazin-2-yl]phenyl]acetamide]
10 to 100	CC(=O)Nc1ccccc1-c1cnc(N)c(-c2nnc(-c3ccccc3)o2)n1 [IA-267, N-(2-(5-amino-6-(5-phenyl-1,3,4-oxadiazol-2-yl)pyrazin-2-yl)phenyl)ethanamide]
10 to 100	CC#Cc1cc(C(=O)N(C)C)ccc1-c1cnc(N)c(-c2nnc(-c3ccccc3)o2)n1 [IA-268, 4-[5-amino-6-(5-phenyl-1,3,4-oxadiazol-2-yl)pyrazin-2-yl]-N,N-dimethyl-3-prop-1-ynyl-benzamide]
≤ 10	Cc1ccsc1-c1nnc(-c2nc(-c3ccc(S(=O)(=O)CCN(C)C)cc3)cnc2N)o1 [IA-269, 5-[4-(2-dimethylaminoethylsulfonyl)phenyl]-3-[5-(3-methyl-2-thienyl)-1,3,4-oxadiazol-2-yl]pyrazin-2-amine]
≤ 10	CC(C)S(=O)(=O)c1ccc(-c2cnc(N)c(-c3nnc(N)o3)n2)cc1 [IA-270, 5-[3-amino-6-(4-isopropylsulfonylphenyl)pyrazin-2-yl]-1,3,4-oxadiazol-2-amine]
100 to 5000	Nc1ncc(-c2ccnc(N3CCNCC3)c2)nc1-c1nnc(-c2ccccc2)o1 [IA-271, 3-(5-phenyl-1,3,4-oxadiazol-2-yl)-5-(2-piperazin-1-yl-4-pyridyl)pyrazin-2-amine]
100 to 5000	CC(N)C(=O)Nc1nnc(-c2nc(-c3ccc(S(=O)(=O)C(C)C)cc3)cnc2N)o1 (stereo not drawn) [IA-272, 2-amino-N-[5-[3-amino-6-(4-isopropylsulfonylphenyl)pyrazin-2-yl]-1,3,4-oxadiazol-2-yl]propanamide]
10 to 100	CC(C)S(=O)(=O)c1ccc(-c2cnc(N)c(-c3nnc(-c4ccc(C#N)cc4)o3)n2)cc1 [IA-273, 4-[5-[3-amino-6-(4-isopropylsulfonylphenyl)pyrazin-2-yl]-1,3,4-oxadiazol-2-yl]benzonitrile]
10 to 100	CC(O)c1cccc(-c2nnc(-c3nc(-c4ccc(C(=O)N(C)C)cc4)cnc3N)o2)c1 (stereo not drawn) [IA-275, 4-[5-amino-6-[5-[3-(1-hydroxyethyl)phenyl]-1,3,4-oxadiazol-2-yl]pyrazin-2-yl]-N,N-dimethyl-benzamide]
≤ 10	Cc1ccsc1-c1nnc(-c2nc(-c3ccc(S(=O)(=O)C(C)C)cc3)cnc2N)o1 [IA-276, 5-(4-isopropylsulfonylphenyl)-3-[5-(3-methyl-2-thienyl)-1,3,4-oxadiazol-2-yl]pyrazin-2-amine]
100 to 5000	CC(=O)Nc1nnc(-c2nc(-c3ccc(C(=O)N(C)C)cc3)cnc2N)o1 [IA-278, 4-[6-(5-acetamido-1,3,4-oxadiazol-2-yl)-5-amino-pyrazin-2-yl]-N,N-dimethyl-benzamide]
100 to 5000	CN(C)CCCOc1ccc(-c2cnc(N)c(-c3nnc(-c4ccccc4)o3)n2)cn1 [IA-279, 5-[6-[3-(dimethylamino)propoxy]-3-pyridyl]-3-(5-phenyl-1,3,4-oxadiazol-2-yl)pyrazin-2-amine]
≤ 10	CC(C)(C)S(=O)(=O)c1ccc(-c2cnc(N)c(-c3nnc(-c4ccccc4)o3)n2)cc1 [IA-280, 5-(4-tert-butylsulfonylphenyl)-3-(5-phenyl-1,3,4-oxadiazol-2-yl)pyrazin-2-amine]
